The structures appear in SMILES notation.

Turning to `C/C(=N\NC(=O)c1cccc([N+](=O)[O-])c1O)c1ccccc1` [I-1, 3-nitrosalicylic (1-phenylethylidene)hydrazide], the melting point is 163 to 168 °C.

As usually defined, the melting point is the temperature of the solid-liquid transition.

These data come from US20020019374A1, “Salicylohydrazide derivatives, processes and intermediates for their preparation, compositions comprising them, and their use” (priority 2000, published 2002).
